# According to patent US20020026053A1, “Novel 3-(substituted) -2- indolinones compounds and use thereof as inhibitors of protein kinase activity” (priority 1997, published 2002):
# Test system: PDGF-R
# Assay: PDGF-R Assay (cellular ELISA, U1242 cells)
# Assay type: cell-based
# Set-up: concentration or dose not given beside the values
# Summary of the method: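 U1242 cells seeded in 0.5% serum, serum-starved, then exposed to compound for 2 hr at 37°C before 5–10 min ligand stimulation and lysis in HNTG. Lysate captured on receptor-antibody-coated plates; phosphotyrosine detected with polyclonal anti-pTyr, goat anti-rabbit IgG and ABTS/H2O2, A410 (ref 630 nm), versus untreated cells.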
row,Compound,PDGF Kinase % Inhibition (P.119) [%]
1,O=C1Nc2ccc(S(=O)(=O)N3CCOCC3)cc2C1=Cc1cc(F)cc(F)c1 [10735/F04],40.5
2,Cc1c(Br)cc(Br)c2c1C(=Cc1cccc(F)c1O)C(=O)N2 [10734/H08],2.9
3,O=C1Nc2ccc(S(=O)(=O)Nc3ccc(C(F)(F)F)cc3)cc2C1=Cc1ccc(-c2ccccc2)cc1 [10735/E11],11.9
4,Cc1c(Br)cc(Br)c2c1C(=Cc1cc(Br)cc(Br)c1O)C(=O)N2 [10734/H07],−6.4
5,O=C1Nc2ccc(S(=O)(=O)N3CCOCC3)cc2C1=Cc1cccc2ccccc12 [10735/F09],19.8
6,CNS(=O)(=O)c1ccc2c(c1)C(=Cc1ccc(F)c(F)c1)C(=O)N2 [10735/D03],12.9
7,Cc1c(Br)ccc2c1C(=Cc1ccc(Cl)cc1Cl)C(=O)N2 [10735/C10],4.0
8,O=C1Nc2ccc(S(=O)(=O)Nc3ccc(C(F)(F)F)cc3)cc2C1=Cc1cccc(C(F)(F)F)c1 [10735/E05],47.8
9,O=C1Nc2ccc(CCCl)cc2C1=Cc1cc(F)cc(F)c1 [10735/G04],11.6
10,O=C1Nc2c(Br)cc(Br)cc2C1=Cc1cc(C(F)(F)F)cc(C(F)(F)F)c1 [10735/A06],4.7
11,O=C1Nc2c(Br)cc(Br)cc2C1=Cc1ccc(Cl)cc1Cl [10735/A10],−0.2
12,N#Cc1ccccc1C=C1C(=O)Nc2ccc(I)cc21 [10735/B07],0.5
13,O=C1Nc2ccc(S(=O)(=O)N3CCOCC3)cc2C1=Cc1ccc(F)c(F)c1 [10735/F03],7.8
14,O=C1Nc2ccc(I)cc2C1=Cc1ccc(-c2ccccc2)cc1 [10735/B11],−8.8
15,O=C1Nc2c(Br)cc(Br)cc2C1=Cc1cc(F)cc(F)c1 [10735/A04],18.8
16,O=C1Nc2ccc(I)cc2C1=Cc1ccc(F)c(F)c1 [10735/B03],16.4
17,N#Cc1ccccc1C=C1C(=O)Nc2ccc(S(=O)(=O)Nc3ccc(C(F)(F)F)cc3)cc21 [10735/E07],57.1
18,N#Cc1ccccc1C=C1C(=O)Nc2c(Br)cc(Br)cc21 [10735/A07],0.5
19,O=C1Nc2ccc(I)cc2C1=Cc1c(F)cccc1F [10735/B08],9.8
20,Cc1c(Br)ccc2c1C(=Cc1c(F)cccc1F)C(=O)N2 [10735/C08],−2.6
21,O=C1Nc2ccc(S(=O)(=O)Nc3ccc(C(F)(F)F)cc3)cc2C1=Cc1cccc2ccccc12 [10735/E09],37.1
22,Cc1c(Br)cc(Br)c2c1C(=Cc1ccc([N+](=O)[O-])cc1)C(=O)N2 [10734/H06],−26.3
23,CNS(=O)(=O)c1ccc2c(c1)C(=Cc1cccc3ccccc13)C(=O)N2 [10735/D09],6.7
24,Cc1c(Br)ccc2c1C(=Cc1cc(C(F)(F)F)cc(C(F)(F)F)c1)C(=O)N2 [10735/C06],25.0

row,Compound,PDGF Kinase % Inhibition (P.119) [%]
1,O=C1Nc2c(Br)cc(Br)cc2C1=Cc1cccc2ccccc12 [10735/A09],1.9
2,CNS(=O)(=O)c1ccc2c(c1)C(=Cc1cc(F)cc(F)c1)C(=O)N2 [10735/D04],8.5
3,O=C1Nc2ccc(I)cc2C1=Cc1cccc(C(F)(F)F)c1 [10735/B05],17.4
4,CNS(=O)(=O)c1ccc2c(c1)C(=Cc1cc(C(F)(F)F)cc(C(F)(F)F)c1)C(=O)N2 [10735/D06],14.7
5,O=C1Nc2ccc(CCCl)cc2C1=Cc1ccc(F)c(F)c1 [10735/G03],6.4
6,O=C1Nc2ccc(S(=O)(=O)Nc3ccc(C(F)(F)F)cc3)cc2C1=Cc1cc(F)cc(F)c1 [10735/E04],91.6
7,O=C1Nc2ccc(I)cc2C1=Cc1cc(C(F)(F)F)cc(C(F)(F)F)c1 [10735/B06],14.0
8,Cc1ccccc1C=C1C(=O)Nc2ccc(S(=O)(=O)Nc3ccc(C(F)(F)F)cc3)cc21 [10735/E02],14.7
9,Cc1c(Br)ccc2c1C(=Cc1cccc3ccccc13)C(=O)N2 [10735/C09],−2.6
10,O=C1Nc2ccc(S(=O)(=O)Nc3ccc(C(F)(F)F)cc3)cc2C1=Cc1c(F)cccc1F [10735/E08],25.4
11,CNS(=O)(=O)c1ccc2c(c1)C(=Cc1ccccc1C)C(=O)N2 [10735/D02],11.6
12,CNS(=O)(=O)c1ccc2c(c1)C(=Cc1ccccc1C#N)C(=O)N2 [10735/D07],3.6
13,Cc1c(Br)ccc2c1C(=Cc1ccc(-c3ccccc3)cc1)C(=O)N2 [10735/C11],−2.9
14,O=C1Nc2c(Br)cc(Br)cc2C1=Cc1ccc(-c2ccccc2)cc1 [10735/A11],5.7
15,O=C1Nc2ccc(S(=O)(=O)N3CCOCC3)cc2C1=Cc1ccc(-c2ccccc2)cc1 [10735/F11],4.0
16,O=C1Nc2ccc(CCCl)cc2C1=Cc1cc(C(F)(F)F)cc(C(F)(F)F)c1 [10735/G06],12.9
17,CNS(=O)(=O)c1ccc2c(c1)C(=Cc1ccc(Cl)cc1Cl)C(=O)N2 [10735/D10],3.3
18,Cc1ccccc1C=C1C(=O)Nc2c(Br)cc(Br)cc21 [10735/A02],14.3
19,O=C1Nc2ccc(S(=O)(=O)Nc3ccc(C(F)(F)F)cc3)cc2C1=Cc1ccc(Cl)cc1Cl [10735/E10],27.1
20,N#Cc1ccccc1C=C1C(=O)Nc2ccc(S(=O)(=O)N3CCOCC3)cc21 [10735/F07],19.2
21,O=C1Nc2ccc(S(=O)(=O)N3CCOCC3)cc2C1=Cc1cc(C(F)(F)F)cc(C(F)(F)F)c1 [10735/F06],20.9
22,CNS(=O)(=O)c1ccc2c(c1)C(=Cc1c(F)cccc1F)C(=O)N2 [10735/D08],−5.7
23,O=C1Nc2c(Br)cc(Br)cc2C1=Cc1cccc(C(F)(F)F)c1 [10735/A05],0.9
24,Cc1c(Br)ccc2c1C(=Cc1ccccc1C#N)C(=O)N2 [10735/C07],11.9

row,Compound,PDGF Kinase % Inhibition (P.119) [%]
1,O=C1Nc2ccc(I)cc2C1=Cc1cccc2ccccc12 [10735/B09],−0.5
2,O=C1Nc2ccc(I)cc2C1=Cc1ccc(Cl)cc1Cl [10735/B10],3.6
3,Cc1ccccc1C=C1C(=O)Nc2ccc(S(=O)(=O)N3CCOCC3)cc21 [10735/F02],6.0
4,O=C1Nc2ccc(I)cc2C1=Cc1cc(F)cc(F)c1 [10735/B04],2.9
5,Cc1c(Br)cc(Br)c2c1C(=Cc1ccc(Br)s1)C(=O)N2 [10734/H11],−17.9
6,O=C1Nc2c(Br)cc(Br)cc2C1=Cc1ccc(F)c(F)c1 [10735/A03],21.9
7,O=C1Nc2ccc(S(=O)(=O)N3CCOCC3)cc2C1=Cc1cccc(C(F)(F)F)c1 [10735/F05],37.1
8,CNS(=O)(=O)c1ccc2c(c1)C(=Cc1cccc(C(F)(F)F)c1)C(=O)N2 [10735/D05],20.5
9,O=C1Nc2ccc(S(=O)(=O)Nc3ccc(C(F)(F)F)cc3)cc2C1=Cc1cc(C(F)(F)F)cc(C(F)(F)F)c1 [10735/E06],32.3
10,CCN(CC)c1ccc(C=C2C(=O)Nc3c(Br)cc(Br)c(C)c32)c(O)c1 [10734/H05],−14.4
11,CNS(=O)(=O)c1ccc2c(c1)C(=Cc1ccc(-c3ccccc3)cc1)C(=O)N2 [10735/D11],0.5
12,Cc1ccccc1C=C1C(=O)Nc2ccc(Br)c(C)c21 [10735/C02],4.7
13,Cc1ccccc1C=C1C(=O)Nc2ccc(I)cc21 [10735/B02],22.6
14,O=C1Nc2ccc(S(=O)(=O)N3CCOCC3)cc2C1=Cc1c(F)cccc1F [10735/F08],13.3
15,Cc1ccccc1C=C1C(=O)Nc2ccc(CCCl)cc21 [10735/G02],7.1
16,O=C1Nc2ccc(S(=O)(=O)N3CCOCC3)cc2C1=Cc1ccc(Cl)cc1Cl [10735/F10],13.3
17,Cc1c(Br)cc(Br)c2c1C(=Cc1ccc(C(C)(C)C)cc1)C(=O)N2 [10734/H10],−17.9
18,Cc1c(Br)ccc2c1C(=Cc1cc(F)cc(F)c1)C(=O)N2 [10735/C04],12.9
19,O=C1Nc2ccc(S(=O)(=O)Nc3ccc(C(F)(F)F)cc3)cc2C1=Cc1ccc(F)c(F)c1 [10735/E03],16.0
20,Cc1c(Br)cc(Br)c2c1C(=Cc1ccc(O)c(Br)c1)C(=O)N2 [10734/H09],−19.2
21,O=C1Nc2c(Br)cc(Br)cc2C1=Cc1c(F)cccc1F [10735/A08],5.3
22,O=C1Nc2ccc(CCCl)cc2C1=Cc1cccc(C(F)(F)F)c1 [10735/G05],13.6
23,Cc1c(Br)ccc2c1C(=Cc1ccc(F)c(F)c1)C(=O)N2 [10735/C03],4.3
24,Cc1c(Br)ccc2c1C(=Cc1cccc(C(F)(F)F)c1)C(=O)N2 [10735/C05],20.5
